Test system: MCF-7, U87, PANC-1 and A549
Test: MTT cytotoxicity assay, average over all tested cancer cell lines
Assay type: cell-based
Conditions: Homo sapiens, 72 h, read-out: average IC50 against all tested cell lines

Compound: CC1=CC(=O)C(C(C)C)=CC1=O [TQ, Thymoquinone]
- IC50: ~32 µM

— paper PMC12516812 (RSC Advances, 2025)
